Results on 31 compounds are retold here after PubChem BioAssay AID179 (DTP/NCI, 2004).

Calls of active or inactive are those of the source.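 Rule for the calls: active = compounds giving half or more protection of infected cells from virus-caused growth loss, again on retest; inactive = the rest.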

In general, EC50 refers to the concentration giving half of the maximal effect. Broadly, the IC50 is the concentration needed to halve the response being measured.

The test concerns CEM cells HIV-1 protection, formazan growth assay. Briefly: NCI AIDS Antiviral Assay. The following applies: for IC50: measured here: growth of uninfected CEM cells. Summed up: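 Human CEM cells, uninfected and HIV-1-infected, received five drug concentrations, and growth was read by soluble formazan assay. Compounds giving at least 50% protection were retested; reproducible 100% protection defined confirmed active.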

`CC1(C)CC(C)(C)CC(O)(C2(O)CC(C)(C)CC(C)(C)C2)C1`: the EC50 is > 8.71 µM and the IC50 is > 8.71 µM.
`CCOC(=O)/C(=C/c1cccc2ccccc12)P(=O)(OCC)OCC`: the EC50 was > 257 µM and the IC50 stood at 17 µM.
`CN(CCO)c1cnn(CCO)c(=O)c1Cl`: the EC50 was > 200 µM and the half-inhibitory concentration (IC50) is > 200 µM.
Turning to `N#CCc1nc(C#N)c(N)o1`, the EC50 was 51.3 µM and the 50% inhibitory concentration (IC50) was > 200 µM.
With `O[C@@H]1CCC[C@@H]2NC[C@@H](c3ccc4c(c3)OCO4)[C@H]12`, the EC50 is > 200 µM and the concentration for half-maximal inhibition (IC50) is > 200 µM.
For the compound `CC(=O)O[C@H]1CC[C@H]2[C@@H]3[C@H](C)CC4=CC(=O)CCC4[C@H]3CC[C@]12C` (stereo partly specified), the EC50 is > 200 µM and the IC50 is 69.2 µM.
Turning to `NC(=S)N/N=C1\COC(C(F)(F)F)(C(F)(F)F)C1`, the EC50 was > 200 µM and the IC50 came out at 166 µM.
Regarding `NNc1nc(Nc2ccccc2)nc(Nc2ccccc2)n1`, the EC50 is > 200 µM and the IC50 is 38 µM.
For `Cc1cc2c(c(C(N)=O)c1C)-c1cccc(F)c1C2=O`, the outcome was inactive.
As to `N=C(N)/N=C(/C=C/c1ccccc1)CC1OC(=O)c2ccccc21` (stereo unspecified), the EC50 was > 42.7 µM and the IC50 is > 42.7 µM.
Take `C/C=C/C=Nc1c(C#N)c2n(c1C(=O)Nc1ccc(Cl)cc1)CCC2`: the EC50 was > 50.1 µM and the IC50 was determined as 23.4 µM.
Taken in the same sequence, the figures for `Cc1cc(C)nc(NC(=O)Nc2ccccc2)c1` were > 200 µM and > 200 µM.
As to `CCCCCCCCCCCC(=O)OCCOCCOCCOCCOCCOCc1ccccc1`, the result was inactive.
As for `CC(=O)NS(=O)(=O)c1ccc(-n2sc3ccccc3c2=O)cc1`, the EC50 was 12.3 µM and the concentration for half-maximal inhibition (IC50) worked out at 30.9 µM.
As for `C[n+]1c2ccccc2c(NCC(=O)O)c2ccccc21`, the outcome was inactive.
In the case of `Cc1ccc(Nc2[nH]c(=O)[nH]c(=O)c2C)cc1Cl`, the EC50 is > 200 µM and the 50% inhibitory concentration (IC50) amounted to 158 µM.
`O=c1ccn(C/C=C/c2ccccc2)c(=S)n1C/C=C/c1ccccc1`: the outcome was inactive.
`Cc1ccc(N=Nc2ccc(O)c(CN(C)C)c2)cc1`: the EC50 was > 200 µM and the concentration for half-maximal inhibition (IC50) turned out to be 21.9 µM.
The corresponding values for `Cc1cc2cc3ccc(Cl)nn3c2nn1` are > 200 µM and > 200 µM.
Taken in the same sequence, the figures for `CN(C)CC1COC2Cc3ccccc3C1O2` (stereo unspecified) were > 200 µM and > 200 µM.
Regarding `O=C(Nc1ccc(C2=NCCN2)cc1)c1cccc(C(=O)Nc2ccc(C3=NCCN3)cc2)c1Cl`, the EC50 is 49 µM and the IC50 was found to be 155 µM.
With `C[C@]12CC[C@H](OC(=O)/C=C\c3cccc(N(CCCl)CCCl)c3)CC1CC[C@@H]1C2CC[C@]2(C)NC(=O)CCC12` (stereo partly specified), the outcome was inactive.
Take `CCc1n[nH]c(=O)n1N1C(=O)CCC1=O`: the EC50 is > 200 µM and the concentration for half-maximal inhibition (IC50) is > 200 µM.
On to `O=C1C=C(O)C(=Cc2c(O)cc(O)cc2O)C(O)=C1`, for which the result was inactive.
`COc1ccc2nc(NC(=O)/C(C#N)=C/c3ccccc3)sc2c1`: the EC50 was > 200 µM and the IC50 came to 12 µM.
Take `S=c1s[nH]c2c1CCC2`: the EC50 was > 107 µM and the IC50 was 77.6 µM.
Taken in the same sequence, the figures for `O=c1c2ccccc2nc(-c2ccccc2)n1NC(=S)Nc1ccc(Cl)cc1` were > 123 µM and 107 µM.
Consider `CC(=O)N1N(c2ccc([N+](=O)[O-])cc2)C(=O)C1(C)C`, for which the EC50 was > 200 µM and the IC50 was > 200 µM.
For `CC(C)c1ncc([N+](=O)[O-])n1C`, the EC50 is > 200 µM and the IC50 was > 200 µM.
On to `C#CC1(O)CCC2[C@@H]3CCc4cc(Oc5nc(F)nc(-c6c7ccccc7c(SCC)n6CCC)n5)ccc4C3CC[C@@]21C` (stereo partly specified), for which the EC50 is > 6.17 µM and the IC50 is > 6.17 µM.
As for `CC(=O)Nc1ccc(S(=O)(=O)c2ccc(NC(=O)c3ccccc3SC(=O)CCCC[n+]3ccccc3)cc2)cc1`, the EC50 was 13.5 µM and the half-maximal inhibitory concentration (IC50) was > 200 µM.
